pKd: −log10 of the molar value. Read-outs that look alike come from different tables or passages of the source.
Legend:
CDK9 = CDK9 (Homo sapiens (Human), UniProt P50750); assay: KdELECT assay for binding affinity to CDK9
Experimental: (§1) Compounds were tested using a KdELECT. Kinase-tagged T7 phage strains were prepared in an E. coli host derived from the BL21 strain. E. coli were grown to log-phase and infected with T7 phage and incubated with shaking at 32° C. until lysis. The lysates were centrifuged and filtered to remove cell debris. The remaining kinases were produced in HEK-293 cells and subsequently tagged with DNA for qPCR detection. Streptavidin-coated magnetic beads were treated with biotinylated small molecule ligands for 30 minutes at room temperature to generate affinity resins for kinase assays. The liganded beads were blocked with excess biotin and washed with blocking buffer (SeaBlock (Pierce), 1% BSA, 0.05% Tween 20, 1 mM DTT) to remove unbound ligand and to reduce non-specific binding. Binding reactions were assembled by combining kinases, liganded affinity beads, and test compounds in 1×binding buffer (20% SeaBlock, 0.17×PBS, 0.05% Tween 20, 6 mM DTT). Test compounds were prepared as 111X stocks in 100% DMSO. Kd values were determined using an 11-point 3-fold compound dilution series with three DMSO control points. All compounds for Kd measurements are distributed by acoustic transfer (non-contact dispensing) in 100% DMSO. The compounds were then diluted directly into the assays such that the final concentration of DMSO was 0.9%. All reactions performed in polypropylene 384-well plate. Each was a final volume of 0.02 mL. The assay plates were incubated at room temperature with shaking for 1 hour and the affinity beads were washed with wash buffer (1×PBS, 0.05% Tween 20). The beads were then re-suspended in elution buffer (1×PBS, 0.05% Tween 20, 0.5 μM nonbiotinylated affinity ligand) and incubated at room temperature with shaking for 30 minutes. The kinase concentration in the eluates was measured by qPCR.

HEK293 cells = assay: Cellular growth inhibition assay (CellTiter-Glo), HEK293 cells; assay type: cell-based; settings: HEK293 cells, three days of compound treatment, CellTiter-Glo 2.0, read-out: CTG HEK293 GI50
In short: (§2)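 HeLa or HEK293 cells in DMEM with 10% FBS exposed to titrated compound for three days at 37 °C, 5% CO2, 24 h after seeding. Viability by CellTiter-Glo 2.0 luminescence, normalized to DMSO Day 0 and Day 3 readings; four-parameter fit gives GI50.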

BTK = BTK (Homo sapiens (Human), UniProt Q06187); assay: KdELECT assay for binding affinity to BTK
Experimental: as §1, with “KdELECT assay.” for “KdELECT.”, “1× binding” for “1×binding”

HeLa cells = assay: Cellular growth inhibition assay (CellTiter-Glo), HeLa cells; assay type: cell-based; settings: HeLa cells, three days of compound treatment, CellTiter-Glo 2.0, read-out: CTG HELA GI50
In short: as §2

Sequence of BTK (Q06187 whole entry): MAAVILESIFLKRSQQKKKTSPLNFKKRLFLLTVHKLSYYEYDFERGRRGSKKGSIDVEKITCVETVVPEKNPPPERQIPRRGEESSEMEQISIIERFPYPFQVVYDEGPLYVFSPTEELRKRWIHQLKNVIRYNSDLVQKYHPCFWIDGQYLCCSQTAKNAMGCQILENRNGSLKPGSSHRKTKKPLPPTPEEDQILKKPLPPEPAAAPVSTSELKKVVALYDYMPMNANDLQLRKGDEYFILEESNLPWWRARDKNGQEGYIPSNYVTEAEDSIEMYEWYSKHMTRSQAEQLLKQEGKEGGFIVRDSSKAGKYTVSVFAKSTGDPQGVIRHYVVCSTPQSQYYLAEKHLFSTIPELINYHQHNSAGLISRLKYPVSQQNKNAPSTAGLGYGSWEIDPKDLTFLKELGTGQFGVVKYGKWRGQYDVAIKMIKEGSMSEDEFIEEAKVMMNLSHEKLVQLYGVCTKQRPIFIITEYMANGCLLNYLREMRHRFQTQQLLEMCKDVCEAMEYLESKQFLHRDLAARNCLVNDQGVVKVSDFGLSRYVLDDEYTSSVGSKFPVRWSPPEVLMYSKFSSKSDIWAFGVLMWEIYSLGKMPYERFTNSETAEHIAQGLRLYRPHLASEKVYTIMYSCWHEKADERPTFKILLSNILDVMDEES
Sequence of CDK9 (P50750 whole entry): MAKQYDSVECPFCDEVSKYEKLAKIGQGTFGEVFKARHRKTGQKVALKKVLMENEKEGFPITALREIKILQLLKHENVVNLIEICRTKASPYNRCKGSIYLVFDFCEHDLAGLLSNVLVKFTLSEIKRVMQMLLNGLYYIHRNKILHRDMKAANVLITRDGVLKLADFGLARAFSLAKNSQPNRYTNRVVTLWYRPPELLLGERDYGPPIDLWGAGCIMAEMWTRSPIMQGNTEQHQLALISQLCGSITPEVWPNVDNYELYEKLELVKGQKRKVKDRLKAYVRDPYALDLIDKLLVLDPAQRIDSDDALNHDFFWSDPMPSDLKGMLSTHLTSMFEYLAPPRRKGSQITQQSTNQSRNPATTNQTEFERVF

Compound | pKd (CDK9) | pKd (BTK) | GI50 (HeLa cells; Homo sapiens, 72 h) [nM] | GI50 (HeLa cells) [nM] | GI50 (HEK293 cells; Homo sapiens, 72 h) [nM] | GI50 (HEK293 cells) [nM]
CCc1cnn2c(NCc3ccc(OCCCN4CCN(CCCN(C)C/C=C/C(=O)N(C)CCOc5c(N)ncnc5-c5cc(F)cc(NC(=O)c6ccc(C7CC7)cc6F)c5C)CC4)nc3)cc(N3CCCC[C@H]3CCO)nc12 [Compound I-81, N-[3-[6-amino-5-[2-[[(E)-4-[3-[4-[3-[5-[[[3-ethyl-5-[(2S)-2-(2-hydroxyethyl)-1-piperidyl]pyrazolo[1,5-a]pyrimidin-7-yl]aminomethyl]-2-pyridyl]oxy]propyl]piperazin-1-yl]propyl-methyl-amino]but-2-enoyl]-methyl-amino]ethoxy]pyrimidin-4-yl]-5-fluoro-2-methyl-phenyl]-4-cyclopropyl-2-fluoro-benzamide] | > 7.30 | > 7.30 | – | < 500 | – | < 500
CN(C/C=C/C(=O)N1CCC[C@@H](n2nc(-c3ccc(Oc4ccccc4)cc3)c3c(N)ncnc32)C1)CCOCCOCCOCCOCCNS(=O)(=O)c1ccc(Nc2ncc(Br)c(Nc3cccc(F)c3C(N)=O)n2)cc1 [Compound I-64, 2-[[2-[4-[2-[2-[2-[2-[2-[[(E)-4-[(3R)-3-[4-amino-3-(4-phenoxyphenyl)pyrazolo[3,4-d]pyrimidin-1-yl]-1-piperidyl]-4-oxo-but-2-enyl]-methyl-amino]ethoxy]ethoxy]ethoxy]ethoxy]ethylsulfamoyl]anilino]-5-bromo-pyrimidin-4-yl]amino]-6-fluoro-benzamide] | 5.60 to 6.30 | > 7.30 | 1500 to 5000 | – | > 5000 | –
CCc1cnn2c(NCc3ccc(CCOCCOCCN(C)C/C=C/C(=O)N4CCC[C@@H](n5nc(-c6ccc(Oc7ccccc7)cc6)c6c(N)ncnc65)C4)nc3)cc(N3CCCC[C@H]3CCO)nc12 [Compound I-67, (E)-1-((R)-3-(4-amino-3-(4-phenoxyphenyl)-1H-pyrazolo[3,4-d]pyrimidin-1-yl)piperidin-1-yl)-4-((2-(2-(2-(5-(((3-ethyl-5-((S)-2-(2-hydroxyethyl)piperidin-1-yl)pyrazolo[1,5-a]pyrimidin-7-yl)amino)methyl)pyridin-2-yl)ethoxy)ethoxy)ethyl)(methyl)amino)but-2-en-1-one] | > 7.30 | > 7.30 | – | – | – | –
CCc1cnn2c(NCc3ccc(OCCOCCOCCOCCOCCN(C)C/C=C/C(=O)N(C)CCOc4c(N)ncnc4-c4cc(F)cc(NC(=O)c5ccc(C6CC6)cc5F)c4C)nc3)cc(N3CCCC[C@H]3CCO)nc12 [Compound I-77] | 6.30 to 7.30 | 5.60 to 6.30 | – | – | – | –

The next lines start with results.

pKd (CDK9) | pKd (BTK) | GI50 (HeLa cells; Homo sapiens, 72 h) [nM] | GI50 (HeLa cells) [nM] | Compound | GI50 (HEK293 cells; Homo sapiens, 72 h) [nM] | GI50 (HEK293 cells) [nM]
> 7.30 | 6.30 to 7.30 | 500 to 1500 | – | CCc1cnn2c(NCc3ccc(OCCOCCOCCOC4CCN(C/C=C/C(=O)N(C)CCOc5c(N)ncnc5-c5cc(F)cc(NC(=O)c6ccc(C7CC7)cc6F)c5C)CC4)nc3)cc(N3CCCC[C@H]3CCO)nc12 [Compound I-82, (S,E)-N-(3-(6-amino-5-(2-(4-(4-(2-(2-(2-((5-(((3-ethyl-5-(2-(2-hydroxyethyl)piperidin-1-yl)pyrazolo[1,5-a]pyrimidin-7-yl)amino)methyl)pyridin-2-yl)oxy)ethoxy)ethoxy)ethoxy)piperidin-1-yl)-N-methylbut-2-enamido)ethoxy)pyrimidin-4-yl)-5-fluoro-2-methylphenyl)-4-cyclopropyl-2-fluorobenzamide] | 1500 to 5000 | –
6.30 to 7.30 | > 7.30 | – | – | Cc1c(NC(=O)c2ccc(C3CC3)cc2F)cc(F)cc1-c1ncnc(N)c1OCCN(C)C(=O)/C=C/CN1CCC(OCCOCCOCCNS(=O)(=O)c2ccc(Nc3ncc(Br)c(Nc4cccc(F)c4C(N)=O)n3)cc2)CC1 [Compound I-80, 2-[[2-[4-[2-[2-[2-[[1-[(E)-4-[2-[4-amino-6-[3-[(4-cyclopropyl-2-fluoro-benzoyl)amino]-5-fluoro-2-methyl-phenyl]pyrimidin-5-yl]oxyethyl-methyl-amino]-4-oxo-but-2-enyl]-4-piperidyl]oxy]ethoxy]ethoxy]ethylsulfamoyl]anilino]-5-bromo-pyrimidin-4-yl]amino]-6-fluoro-benzamide] | – | –
